# Laboratory results as given in the NIST ThermoML archive (doi:10.1016/j.jct.2016.02.014).
# Numbers after ± are expanded uncertainties.
# Assay: xn = mol fraction of the nth substance listed
# Settings: 100 kPa, Liquid; for viscosity: Capillary tube (Ostwald / Ubbelohde) method; for mass density: Vibrating tube method
structure (smiles),measurement,setting,value
O=C1CCCO1 [γ-butyrolactone] + CCCCn1cc[n+](C)c1.N#CN=C=[N-],viscosity,"273.15 K, x2 = 0",2.69 ± 0.06 mPa·s
same,viscosity,"273.15 K, x2 = 0.0504",3.61 ± 0.08 mPa·s
same,viscosity,"273.15 K, x2 = 0.1002",4.65 ± 0.11 mPa·s
same,viscosity,"273.15 K, x2 = 0.2002",7.69 ± 0.17 mPa·s
same,viscosity,"273.15 K, x2 = 0.2984",11.85 ± 0.27 mPa·s
same,viscosity,"273.15 K, x2 = 0.4005",17.81 ± 0.4 mPa·s
same,viscosity,"273.15 K, x2 = 0.4954",24.81 ± 0.56 mPa·s
same,viscosity,"273.15 K, x2 = 0.6957",45.75 ± 1 mPa·s
same,viscosity,"273.15 K, x2 = 0.8871",74.11 ± 1.7 mPa·s
same,mass density,"273.15 K, x2 = 0",1149.15 ± 9.2 kg/m3
same,mass density,"273.15 K, x2 = 0.0504",1142.33 ± 9.1 kg/m3
same,mass density,"273.15 K, x2 = 0.1002",1136.31 ± 9.1 kg/m3
same,mass density,"273.15 K, x2 = 0.2002",1124.63 ± 9 kg/m3
same,mass density,"273.15 K, x2 = 0.2984",1114.82 ± 8.9 kg/m3
same,mass density,"273.15 K, x2 = 0.4005",1106.01 ± 8.9 kg/m3
same,mass density,"273.15 K, x2 = 0.4954",1099.09 ± 8.8 kg/m3
same,mass density,"273.15 K, x2 = 0.6957",1087.48 ± 8.7 kg/m3
same,mass density,"273.15 K, x2 = 0.8871",1079.17 ± 8.7 kg/m3
same,viscosity,"283.15 K, x2 = 0",2.21 ± 0.05 mPa·s
same,viscosity,"283.15 K, x2 = 0.0504",2.94 ± 0.07 mPa·s
same,viscosity,"283.15 K, x2 = 0.1002",3.73 ± 0.09 mPa·s
same,viscosity,"283.15 K, x2 = 0.2002",5.87 ± 0.13 mPa·s
same,viscosity,"283.15 K, x2 = 0.2984",8.75 ± 0.19 mPa·s
same,viscosity,"283.15 K, x2 = 0.4005",12.54 ± 0.28 mPa·s
same,viscosity,"283.15 K, x2 = 0.4954",16.9 ± 0.38 mPa·s
same,viscosity,"283.15 K, x2 = 0.6957",29.14 ± 0.65 mPa·s
same,viscosity,"283.15 K, x2 = 0.8871",44.36 ± 1 mPa·s
same,mass density,"283.15 K, x2 = 0",1139.31 ± 9.1 kg/m3
same,mass density,"283.15 K, x2 = 0.0504",1133.08 ± 9.1 kg/m3
same,mass density,"283.15 K, x2 = 0.1002",1127.5 ± 9 kg/m3
same,mass density,"283.15 K, x2 = 0.2002",1116.53 ± 8.9 kg/m3
same,mass density,"283.15 K, x2 = 0.2984",1107.21 ± 8.9 kg/m3
same,mass density,"283.15 K, x2 = 0.4005",1098.76 ± 8.8 kg/m3
same,mass density,"283.15 K, x2 = 0.4954",1092.29 ± 8.8 kg/m3
same,mass density,"283.15 K, x2 = 0.6957",1081.06 ± 8.7 kg/m3
same,mass density,"283.15 K, x2 = 0.8871",1072.88 ± 8.6 kg/m3
same,viscosity,"293.15 K, x2 = 0",1.86 ± 0.04 mPa·s
same,viscosity,"293.15 K, x2 = 0.0504",2.42 ± 0.05 mPa·s
same,viscosity,"293.15 K, x2 = 0.1002",2.97 ± 0.07 mPa·s
same,viscosity,"293.15 K, x2 = 0.2002",4.53 ± 0.1 mPa·s
same,viscosity,"293.15 K, x2 = 0.2984",6.68 ± 0.15 mPa·s
same,viscosity,"293.15 K, x2 = 0.4005",9.31 ± 0.21 mPa·s
same,viscosity,"293.15 K, x2 = 0.4954",12.22 ± 0.27 mPa·s
same,viscosity,"293.15 K, x2 = 0.6957",19.95 ± 0.45 mPa·s
same,viscosity,"293.15 K, x2 = 0.8871",28.87 ± 0.65 mPa·s
same,mass density,"293.15 K, x2 = 0",1129.49 ± 9 kg/m3
same,mass density,"293.15 K, x2 = 0.0504",1123.86 ± 9 kg/m3
same,mass density,"293.15 K, x2 = 0.1002",1118.73 ± 9 kg/m3
same,mass density,"293.15 K, x2 = 0.2002",1108.38 ± 8.9 kg/m3
same,mass density,"293.15 K, x2 = 0.2984",1099.49 ± 8.8 kg/m3
same,mass density,"293.15 K, x2 = 0.4005",1091.44 ± 8.7 kg/m3
same,mass density,"293.15 K, x2 = 0.4954",1085.13 ± 8.7 kg/m3
same,mass density,"293.15 K, x2 = 0.6957",1074.27 ± 8.6 kg/m3
same,mass density,"293.15 K, x2 = 0.8871",1066.34 ± 8.6 kg/m3
same,viscosity,"298.15 K, x2 = 0",1.71 ± 0.04 mPa·s
same,viscosity,"298.15 K, x2 = 0.0504",2.22 ± 0.05 mPa·s
same,viscosity,"298.15 K, x2 = 0.1002",2.77 ± 0.06 mPa·s
same,viscosity,"298.15 K, x2 = 0.2002",4.16 ± 0.09 mPa·s
same,viscosity,"298.15 K, x2 = 0.2984",5.92 ± 0.13 mPa·s
same,viscosity,"298.15 K, x2 = 0.4005",8.18 ± 0.18 mPa·s
same,viscosity,"298.15 K, x2 = 0.4954",10.57 ± 0.23 mPa·s
same,viscosity,"298.15 K, x2 = 0.6957",16.81 ± 0.38 mPa·s
same,viscosity,"298.15 K, x2 = 0.8871",23.85 ± 0.54 mPa·s
same,mass density,"298.15 K, x2 = 0",1124.59 ± 9 kg/m3
same,mass density,"298.15 K, x2 = 0.0504",1119.26 ± 9 kg/m3
same,mass density,"298.15 K, x2 = 0.1002",1114.35 ± 8.9 kg/m3
same,mass density,"298.15 K, x2 = 0.2002",1104.32 ± 8.8 kg/m3
same,mass density,"298.15 K, x2 = 0.2984",1095.65 ± 8.8 kg/m3
same,mass density,"298.15 K, x2 = 0.4005",1087.78 ± 8.7 kg/m3
same,mass density,"298.15 K, x2 = 0.4954",1081.58 ± 8.7 kg/m3
same,mass density,"298.15 K, x2 = 0.6957",1070.9 ± 8.6 kg/m3
same,mass density,"298.15 K, x2 = 0.8871",1063.09 ± 8.5 kg/m3
same,viscosity,"303.15 K, x2 = 0",1.59 ± 0.03 mPa·s
same,viscosity,"303.15 K, x2 = 0.0504",2.03 ± 0.05 mPa·s
same,viscosity,"303.15 K, x2 = 0.1002",2.5 ± 0.06 mPa·s
same,viscosity,"303.15 K, x2 = 0.2002",3.81 ± 0.08 mPa·s
same,viscosity,"303.15 K, x2 = 0.2984",5.27 ± 0.12 mPa·s
same,viscosity,"303.15 K, x2 = 0.4005",7.14 ± 0.16 mPa·s
same,viscosity,"303.15 K, x2 = 0.4954",9.15 ± 0.2 mPa·s
same,viscosity,"303.15 K, x2 = 0.6957",14.23 ± 0.32 mPa·s
same,viscosity,"303.15 K, x2 = 0.8871",19.86 ± 0.45 mPa·s
same,mass density,"303.15 K, x2 = 0",1119.68 ± 9 kg/m3
same,mass density,"303.15 K, x2 = 0.0504",1114.67 ± 8.9 kg/m3
same,mass density,"303.15 K, x2 = 0.1002",1109.99 ± 8.9 kg/m3
same,mass density,"303.15 K, x2 = 0.2002",1100.28 ± 8.8 kg/m3
same,mass density,"303.15 K, x2 = 0.2984",1091.83 ± 8.7 kg/m3
same,mass density,"303.15 K, x2 = 0.4005",1084.14 ± 8.7 kg/m3
same,mass density,"303.15 K, x2 = 0.4954",1078.05 ± 8.6 kg/m3
same,mass density,"303.15 K, x2 = 0.6957",1067.55 ± 8.6 kg/m3
same,mass density,"303.15 K, x2 = 0.8871",1059.86 ± 8.5 kg/m3
same,viscosity,"313.15 K, x2 = 0",1.37 ± 0.03 mPa·s
same,viscosity,"313.15 K, x2 = 0.0504",1.74 ± 0.04 mPa·s
same,viscosity,"313.15 K, x2 = 0.1002",2.14 ± 0.05 mPa·s
same,viscosity,"313.15 K, x2 = 0.2002",3.14 ± 0.07 mPa·s
same,viscosity,"313.15 K, x2 = 0.2984",4.27 ± 0.09 mPa·s
same,viscosity,"313.15 K, x2 = 0.4005",5.64 ± 0.12 mPa·s
same,viscosity,"313.15 K, x2 = 0.4954",7.11 ± 0.16 mPa·s
same,viscosity,"313.15 K, x2 = 0.6957",10.69 ± 0.24 mPa·s
same,viscosity,"313.15 K, x2 = 0.8871",14.53 ± 0.33 mPa·s
same,mass density,"313.15 K, x2 = 0",1109.87 ± 8.9 kg/m3
same,mass density,"313.15 K, x2 = 0.0504",1105.49 ± 8.8 kg/m3
same,mass density,"313.15 K, x2 = 0.1002",1101.27 ± 8.8 kg/m3
same,mass density,"313.15 K, x2 = 0.2002",1092.23 ± 8.7 kg/m3
same,mass density,"313.15 K, x2 = 0.2984",1084.22 ± 8.7 kg/m3
same,mass density,"313.15 K, x2 = 0.4005",1076.84 ± 8.6 kg/m3
same,mass density,"313.15 K, x2 = 0.4954",1071.02 ± 8.6 kg/m3
same,mass density,"313.15 K, x2 = 0.6957",1060.89 ± 8.5 kg/m3
same,mass density,"313.15 K, x2 = 0.8871",1053.44 ± 8.5 kg/m3
same,viscosity,"323.15 K, x2 = 0",1.2 ± 0.03 mPa·s
same,viscosity,"323.15 K, x2 = 0.0504",1.52 ± 0.03 mPa·s
same,viscosity,"323.15 K, x2 = 0.1002",1.83 ± 0.04 mPa·s
same,viscosity,"323.15 K, x2 = 0.2002",2.63 ± 0.06 mPa·s
same,viscosity,"323.15 K, x2 = 0.2984",3.56 ± 0.08 mPa·s
same,viscosity,"323.15 K, x2 = 0.4005",4.6 ± 0.1 mPa·s
same,viscosity,"323.15 K, x2 = 0.4954",5.7 ± 0.13 mPa·s
same,viscosity,"323.15 K, x2 = 0.6957",8.38 ± 0.19 mPa·s
same,viscosity,"323.15 K, x2 = 0.8871",11.03 ± 0.25 mPa·s
same,mass density,"323.15 K, x2 = 0",1100.05 ± 8.8 kg/m3
same,mass density,"323.15 K, x2 = 0.0504",1096.31 ± 8.8 kg/m3
same,mass density,"323.15 K, x2 = 0.1002",1092.59 ± 8.7 kg/m3
same,mass density,"323.15 K, x2 = 0.2002",1084.21 ± 8.7 kg/m3
same,mass density,"323.15 K, x2 = 0.2984",1076.75 ± 8.6 kg/m3
same,mass density,"323.15 K, x2 = 0.4005",1069.73 ± 8.6 kg/m3
same,mass density,"323.15 K, x2 = 0.4954",1064.05 ± 8.5 kg/m3
same,mass density,"323.15 K, x2 = 0.6957",1054.29 ± 8.5 kg/m3
same,mass density,"323.15 K, x2 = 0.8871",1047.09 ± 8.4 kg/m3
